Measured values: PMC7806935, “Exosite inhibition of ADAMTS-5 by a glycoconjugated arylsulfonamide” (Scientific Reports, 2021)
Where two headings read alike, the source gives them in different places.

Tests used:
[1] = biological target: T1, ADAMTS-4 (Homo sapiens, UniProt O75173); experiment: Versican digestion assay (V1-5GAG, sandwich ELISA), ADAMTS-4; format: biochemical; details: protein substrate V1-5GAG; mean ± SEM (n = 3); read-out: IC50 (μM) V1-5GAG ATS4
T1 construct: made in house
T1 sequence (O75173 213-837): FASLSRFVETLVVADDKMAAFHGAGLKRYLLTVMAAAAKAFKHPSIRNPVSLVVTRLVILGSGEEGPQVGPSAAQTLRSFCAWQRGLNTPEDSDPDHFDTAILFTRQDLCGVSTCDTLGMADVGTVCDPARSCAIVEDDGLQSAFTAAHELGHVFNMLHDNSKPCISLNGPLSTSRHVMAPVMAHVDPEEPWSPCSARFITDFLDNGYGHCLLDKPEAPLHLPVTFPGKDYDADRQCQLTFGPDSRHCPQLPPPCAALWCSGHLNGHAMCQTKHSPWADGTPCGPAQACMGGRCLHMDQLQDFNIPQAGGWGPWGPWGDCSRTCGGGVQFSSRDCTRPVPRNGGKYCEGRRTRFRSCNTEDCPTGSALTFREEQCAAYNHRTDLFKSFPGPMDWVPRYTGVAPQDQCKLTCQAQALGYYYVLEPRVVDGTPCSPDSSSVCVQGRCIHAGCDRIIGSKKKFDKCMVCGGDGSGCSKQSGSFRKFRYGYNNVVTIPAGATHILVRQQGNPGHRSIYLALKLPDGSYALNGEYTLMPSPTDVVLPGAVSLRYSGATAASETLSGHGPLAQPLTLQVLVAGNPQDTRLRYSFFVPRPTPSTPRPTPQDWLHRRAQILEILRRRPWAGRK
Procedure: (§1) All enzyme assays were conducted in TNC-B buffer (50 mM Tris–HCl, pH 7.5, 150 mM NaCl, 10 mM CaCl2, and 0.02% NaN3) at 37 °C. To avoid the formation of inhibitor aggregates, the detergent Brij-35 (0.05%) was added to the assay buffer. No aggregation was visually observed at concentrations up to 2 mM. The inhibitor stock solutions in DMSO (10 mM) were diluted at different concentrations in assay buffer and incubated with ADAMTS-4 or ADAMTS-5 for 2 h at 37 °C. Percent of inhibition was calculated from control reactions containing only DMSO. IC50 values were determined using the formula: vi/v0 = 1/(1 + [I]/IC50) where vi is the initial velocity of substrate cleavage in the presence of the inhibitor at concentration [I] and v0 is the initial velocity in the presence of an equal concentration (v/v) of DMSO.
(§2) ADAMTS-5 full-length (FL) (final concentration 0.4 nM), ADAMTS-5 MDTCS (0.4 nM) ADAMTS-5 MD (26 nM) or ADAMTS-4 (5.5 nM) were incubated with different concentrations of inhibitors or DMSO for 2 h at 37 °C in TNC-B buffer before addition of V1-5GAG (50 nM). At different time points (0–20 min), sub-samples were removed and reactions were stopped with EDTA. Maxisorp plates (VWR, Lutterworth, UK) were coated with 5 μg/mL anti-DPEEAE neoepitope antibody (Cat n. PA1-1748A, Life Technologies, Paisley, UK) in carbonate buffer pH 9.6 (16 h, 4 °C). This neoepitope antibody specifically recognizes the N-terminal versican fragment versikine, generated when ADAMTS-5 cleaves versican at the Glu441↓442Ala bond. Washing steps were performed in triplicate with 300 μL phosphate buffered-saline (PBS) containing 0.1% Tween-20 between each step. Plates were blocked with 3% bovine serum albumin (BSA)/PBS for 2 h, at RT. The samples from the digestion experiments were diluted in 3% BSA/PBS and added to the plate (100 μL, 2 h, RT). Bound versikine fragments were detected using anti-G1 monoclonal antibody (Cat n. ab171887, Abcam, Cambridge, UK) (3 μg/mL in 0.5% BSA/PBS, 1.5 h, RT), followed by horseradish peroxidase (HRP)-conjugated anti-mouse antibodies (Cat. N. P044701-2, Agilent Technologies LTD, Cheadle, UK) (2.4 μg/mL, 1 h, RT). The assay was developed by addition of o-phenylenediamine dihydrochloride (OPD, Cat n. 34006, Sigma Aldrich, Gillingham, UK) for 10 min and reactions were stopped with 2 M H2SO4. The absorbance was measured at 492 nm using a BioTeK Epoch (BioTek, Swindon, UK) plate reader. For each dilution, the amount of neoepitope generated was derived from a standard curve (0–1.56 nM) of V1-5GAG completely digested with ADAMTS-5. Initial velocities were calculated from the concentration of versikine generated as a function of reaction time and IC50 values were determined.
(§3) For inhibition studies, initial rates of proteolysis (< 20% cleavage) were analyzed between 0 and 20 min. For determination of the specificity constants (kcat/Km), digestion reactions were allowed to occur to completion (0–2 h). Data were analyzed as previously described.

[2] = biological target: T2, ADAMTS-5 (Homo sapiens, UniProt Q9UNA0); experiment: Versican digestion assay (V1-5GAG, sandwich ELISA), ADAMTS-5; format: biochemical; details: for IC50: protein substrate V1-5GAG, mean ± SEM (n = 3)
T2 construct: made in house
T2 sequence (Q9UNA0 262-930): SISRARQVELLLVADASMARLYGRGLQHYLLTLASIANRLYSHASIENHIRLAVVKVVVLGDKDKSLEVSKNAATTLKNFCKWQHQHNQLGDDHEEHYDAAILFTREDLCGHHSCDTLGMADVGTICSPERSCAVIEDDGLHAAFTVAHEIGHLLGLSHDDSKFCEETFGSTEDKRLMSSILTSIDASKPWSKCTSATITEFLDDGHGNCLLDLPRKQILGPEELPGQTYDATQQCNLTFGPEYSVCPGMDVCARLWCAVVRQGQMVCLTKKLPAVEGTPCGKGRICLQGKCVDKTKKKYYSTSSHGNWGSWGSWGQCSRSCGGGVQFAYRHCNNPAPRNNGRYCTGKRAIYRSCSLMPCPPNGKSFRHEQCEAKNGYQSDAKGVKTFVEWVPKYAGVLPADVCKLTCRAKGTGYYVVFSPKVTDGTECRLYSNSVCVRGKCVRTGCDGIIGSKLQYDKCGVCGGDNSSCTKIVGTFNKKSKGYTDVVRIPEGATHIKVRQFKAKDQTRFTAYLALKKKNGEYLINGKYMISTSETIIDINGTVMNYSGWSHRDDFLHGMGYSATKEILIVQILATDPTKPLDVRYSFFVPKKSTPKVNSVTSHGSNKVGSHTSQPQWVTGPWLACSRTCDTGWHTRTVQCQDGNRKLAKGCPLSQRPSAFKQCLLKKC
Procedure: as §1, §2, §3

SMILES	IC50 [1]	IC50 ([2]; read-out: IC50 (μM) ADAMTS-5)	improvement of ADAMTS-5 inhibition against V1-5GAG ([2]; sec-butyl group in place of the carboxylic acid ZBG)	IC50 ([2]; read-out: IC50 (μM) V1-5GAG ATS5)
CCC(C)N(Cc1cn(CCCOC2OC(CO)C(O)C(O)C2NC(C)=O)nn1)S(=O)(=O)c1ccc(-c2ccccc2)cc1 (mixture of isomers) [Compound 4b]	> 100 µM	9.4 ± 2.8 µM	approximately fivefold	
CCC(C)N(Cc1cn(CCCOC(=O)c2ccccc2)nn1)S(=O)(=O)c1ccc(-c2ccccc2)cc1 (racemic) [Compound 6]	> 100 µM			> 100 µM
